How the values were obtained:
Assay in all cases: Cancer cell growth inhibition
Format in all cases: cell-based
EFO21 = conditions: Homo sapiens, EFO-21; EFO21 (ovary), 72 hr treatment
Protocol: (§1) The ability of select compounds to inhibit cell growth in various cancer cell lines are evaluated. […] The cell lines shown in Table 2 have reduced growth by at least 50% at 10 uM or lower over 72 hr treatment in growth media. The cell lines shown in Table 3 have reduced growth by at least 50% with an IC50 greater than 10 uM.
(§2) Six 10-fold compound dilutions are prepared in DMSO (e.g. 10 mM, 1 mM, 100 uM, 10 uM, 1 uM, and 0.1 uM). Single data points are acquired for each concentration. The final concentration of DMSO is 0.1%. The duration of the treatment is 72 hr. Growth inhibition is measured using Sulforhodamine B in a protein staining assay. Activity of the agents is determined by evaluation the following parameters: IC50, GI50, IC10, TGI, LC50, IC90, and GI90 (where these values can be calculated).

SKLMS1 = conditions: Homo sapiens, SK-LMS-1; SKLMS1 (uterus), 72 hr treatment
Protocol: as §1, §2

EJ28 = conditions: Homo sapiens, EJ-28; EJ28 (bladder), 72 hr treatment
Protocol: as §1, §2

SKNSH = conditions: Homo sapiens, SK-N-SH; SKNSH (brain), 72 hr treatment
Protocol: as §1, §2

MIAPACA2 = conditions: Homo sapiens, MIA PaCa-2; MIAPACA2 (pancreas), 72 hr treatment
Protocol: as §1, §2

RD = conditions: Homo sapiens; RD (muscle), 72 hr treatment
Protocol: as §1, §2

HEK293 = conditions: Homo sapiens; HEK293 (kidney), 72 hr treatment
Protocol: as §1, §2

MINO = conditions: Homo sapiens; MINO (hematological), 72 hr treatment
Protocol: as §1, §2

L-363 = conditions: Homo sapiens; L-363 (hematological), 72 hr treatment
Protocol: as §1, §2

SKOV3 = conditions: Homo sapiens, SK-OV-3; SKOV3 (ovary), 72 hr treatment
Protocol: as §1, §2

TE671 = conditions: Homo sapiens, TE-671; TE671 (muscle), 72 hr treatment
Protocol: as §1, §2

C33A = conditions: Homo sapiens, C-33-A; C33A (endometrial), 72 hr treatment
Protocol: as §1, §2

HCT15 = conditions: Homo sapiens, HCT-15; HCT15 (colon), 72 hr treatment
Protocol: as §1, §2

MT3 = conditions: MT-3; MT3 (breast), 72 hr treatment
Protocol: as §1, §2

RDES = conditions: RD-ES; RDES (bone), 72 hr treatment
Protocol: as §1, §2

A204 = conditions: Homo sapiens; A204 (muscle), 72 hr treatment
Protocol: as §1, §2

CLS439 = CLS439 (bladder), 72 hr treatment
Protocol: as §1, §2

SU-DHL-10 = conditions: Homo sapiens, SU-DHL10; SU-DHL-10 (hematological), 72 hr treatment
Protocol: as §1, §2

CALU6 = conditions: Homo sapiens, Calu-6; CALU6 (lung), 72 hr treatment
Protocol: as §1, §2

T24 = conditions: Homo sapiens, T-24; T24 (bladder), 72 hr treatment
Protocol: as §1, §2

SKBR3 = conditions: Homo sapiens, SK-BR-3; SKBR3 (breast), 72 hr treatment
Protocol: as §1, §2

MDAMB468 = conditions: Homo sapiens, MDA-MB-468; MDAMB468 (breast), 72 hr treatment
Protocol: as §1, §2

A2780 = conditions: Homo sapiens; A2780 (ovary), 72 hr treatment
Protocol: as §1, §2

CAKI1 = conditions: Homo sapiens, CAKI-1; CAKI1 (kidney), 72 hr treatment
Protocol: as §1, §2

A673 = conditions: Homo sapiens; A673 (muscle), 72 hr treatment
Protocol: as §1, §2

BT20 = conditions: Homo sapiens, BT-20; BT20 (breast), 72 hr treatment
Protocol: as §1, §2

22RV1 = conditions: Homo sapiens; 22RV1 (prostate), 72 hr treatment
Protocol: as §1, §2

HT29 = conditions: Homo sapiens, HT-29; HT29 (colon), 72 hr treatment
Protocol: as §1, §2

K-562 = conditions: Homo sapiens, K562; K-562 (hematological), 72 hr treatment
Protocol: as §1, §2

IMR90 = conditions: Homo sapiens, IMR-90; IMR90 (lung), 72 hr treatment
Protocol: as §1, §2

HS578T = conditions: Homo sapiens, Hs-578T; HS578T (breast), 72 hr treatment
Protocol: as §1, §2

SF268 = conditions: Homo sapiens, SF-268; SF268 (brain), 72 hr treatment
Protocol: as §1, §2

IC50 (EFO21) | IC50 (SKLMS1) | IC50 (EJ28) | IC50 (SKNSH) | IC50 (MIAPACA2) | IC50 (RD) | IC50 (MINO) | IC50 (L-363) | IC50 (SKOV3) | IC50 (TE671) | IC50 (C33A) | IC50 (HCT15) | IC50 (MT3) | IC50 (RDES) | IC50 (A204) | IC50 (CLS439) | IC50 (SU-DHL-10) | IC50 (CALU6) | IC50 (T24) | Compound | IC50 (HEK293) | also measured
< 10 µM | > 10 µM | > 10 µM | < 10 µM | > 10 µM | > 10 µM | < 10 µM | < 10 µM | > 10 µM | < 10 µM | < 10 µM | < 10 µM | < 10 µM | > 10 µM | > 10 µM | > 10 µM | < 10 µM | < 10 µM | > 10 µM | CC(C)(O)Cc1cc(-c2csc(-c3ccc(NS(C)(=O)=O)cc3Cl)c2)ccn1 [Compound I-9004, N-(3-chloro-4-(4-(2-(2-hydroxy-2-methylpropyl)pyridin-4-yl)thiophen-2-yl)phenyl)methanesulfonamide] | < 10 µM | IC50 (SKBR3): < 10 µM; IC50 (MDAMB468): < 10 µM; IC50 (A2780): < 10 µM; IC50 (CAKI1): < 10 µM; IC50 (A673): > 10 µM; IC50 (BT20): > 10 µM; IC50 (22RV1): < 10 µM; IC50 (HT29): < 10 µM; IC50 (K-562): < 10 µM; IC50 (IMR90): > 10 µM; IC50 (HS578T): > 10 µM; IC50 (SF268): < 10 µM
< 10 µM | > 10 µM | > 10 µM | < 10 µM | > 10 µM | > 10 µM | < 10 µM | < 10 µM | > 10 µM | < 10 µM | < 10 µM | > 10 µM | < 10 µM | > 10 µM | < 10 µM | > 10 µM | < 10 µM | < 10 µM | > 10 µM | CC(C)(CO)c1cc(-c2csc(-c3ccc(NS(C)(=O)=O)cc3Cl)c2)ccn1 [Compound I-8909, N-(3-chloro-4-(4-(2-(1-hydroxy-2-methylpropan-2-yl)pyridin-4-yl)thiophen-2-yl)phenyl)methanesulfonamide] | < 10 µM | IC50 (SKBR3): < 10 µM; IC50 (MDAMB468): < 10 µM; IC50 (A2780): < 10 µM; IC50 (CAKI1): < 10 µM; IC50 (A673): > 10 µM; IC50 (BT20): > 10 µM; IC50 (22RV1): < 10 µM; IC50 (HT29): < 10 µM; IC50 (K-562): < 10 µM; IC50 (IMR90): > 10 µM; IC50 (HS578T): > 10 µM; IC50 (SF268): < 10 µM
< 10 µM | > 10 µM | > 10 µM | < 10 µM | < 10 µM | > 10 µM | < 10 µM | < 10 µM | < 10 µM | < 10 µM | < 10 µM | > 10 µM | < 10 µM | < 10 µM | < 10 µM | < 10 µM | < 10 µM | < 10 µM | < 10 µM | CS(=O)(=O)Nc1ccc(-c2cc(-c3ccnc4c3OCCO4)cs2)c(Cl)c1 [Compound I-9017, N-(3-chloro-4-(4-(2,3-dihydro-[1,4]dioxino[2,3-b]pyridin-8-yl)thiophen-2-yl)phenyl)methanesulfonamide] | < 10 µM | IC50 (SKBR3): < 10 µM; IC50 (MDAMB468): < 10 µM; IC50 (A2780): < 10 µM; IC50 (CAKI1): < 10 µM; IC50 (A673): < 10 µM; IC50 (BT20): < 10 µM; IC50 (22RV1): < 10 µM; IC50 (HT29): < 10 µM; IC50 (K-562): < 10 µM; IC50 (IMR90): > 10 µM; IC50 (HS578T): > 10 µM; IC50 (SF268): < 10 µM
